# Measured values: ChEMBL document CHEMBL1146577, “Sulfemodin 8-O-beta-D-glucoside, a new sulfated anthraquinone glycoside, and antioxidant phenolic compounds from Rheum emodi” (J Nat Prod, 2003)
# Tested on: Radical scavenging activity
# Test: Antioxidant activity assessed as DPPH radical scavenging activity
# Type: functional
row,Compound,IC50 [µg/mL]
1,Cc1cc(O[C@@H]2O[C@H](CO)[C@@H](O)[C@H](O)[C@H]2O)c2c(c1)C(=O)c1cc(O)cc(O)c1C2=O,> 100
2,Oc1cc(O)c2c(c1)O[C@H](c1ccc(O)c(O)c1)[C@H](O)C2 [(-)-EPICATECHIN],1.7
3,COc1cc(O[C@@H]2O[C@H](CO)[C@@H](O)[C@H](O)[C@H]2O)c2c(O)c(C(C)=O)c(C)cc2c1,18.5
4,COc1cc(O)c2c(c1)C(=O)c1cc(C)cc(O[C@@H]3O[C@H](CO)[C@@H](O)[C@H](O)[C@H]3O)c1C2=O,> 100
5,COc1cc(O)cc2c1C(=O)C(O)(Cc1ccc(O)cc1)O2 (stereo unspecified) [CARPUSIN],4.7
6,O=C1O[C@H]([C@@H](O)CO)C(O)=C1O [ASCORBIC ACID],3.9
7,Cc1cc(O)c2c(c1)C(=O)c1cccc(O)c1C2=O [CHRYSOPHANOL],> 100

# The remaining lines, values ahead:
row,IC50 [µg/mL],Compound
1,> 100,Cc1cc(O)c2c(c1)C(=O)c1cc(O)cc(O)c1C2=O [EMODIN]
2,5.3,O=C1c2c(O)cc(O)cc2OC1(O)Cc1ccc(O)cc1 (stereo unspecified) [MAESOPSIN]
3,> 100,Cc1cc(O)c2c(c1)C(=O)c1cccc(O[C@@H]3O[C@H](CO)[C@@H](O)[C@H](O)[C@H]3O)c1C2=O [PULMATIN]
4,> 100,COc1cc(O)c2c(c1)C(=O)c1cc(C)cc(O)c1C2=O [PHYSCION]
